Assay results from PMC11364104, “Discovery of SARS-CoV-2 papain-like protease (PL^pro) inhibitors with efficacy in a murine infection model” (Science Advances, 2024).

Columns and labels:
PDE3B = molecular target: T1, PDE3B (Homo sapiens, UniProt Q13370); experiment: CEREP enzyme inhibition; format: biochemical
T1 construct: purchased Eurofins Cerep

[1] = molecular target: Human Immunodeficiency Virus-1 protease (Human immunodeficiency virus type 1 group M subtype B, UniProt P04585); experiment: biochemical
Acetylcholinesterase = molecular target: T2, Acetylcholinesterase (Homo sapiens, UniProt P22303); experiment: CEREP enzyme inhibition; format: biochemical
T2 construct: purchased Eurofins Cerep
T2 sequence (P22303 32-614): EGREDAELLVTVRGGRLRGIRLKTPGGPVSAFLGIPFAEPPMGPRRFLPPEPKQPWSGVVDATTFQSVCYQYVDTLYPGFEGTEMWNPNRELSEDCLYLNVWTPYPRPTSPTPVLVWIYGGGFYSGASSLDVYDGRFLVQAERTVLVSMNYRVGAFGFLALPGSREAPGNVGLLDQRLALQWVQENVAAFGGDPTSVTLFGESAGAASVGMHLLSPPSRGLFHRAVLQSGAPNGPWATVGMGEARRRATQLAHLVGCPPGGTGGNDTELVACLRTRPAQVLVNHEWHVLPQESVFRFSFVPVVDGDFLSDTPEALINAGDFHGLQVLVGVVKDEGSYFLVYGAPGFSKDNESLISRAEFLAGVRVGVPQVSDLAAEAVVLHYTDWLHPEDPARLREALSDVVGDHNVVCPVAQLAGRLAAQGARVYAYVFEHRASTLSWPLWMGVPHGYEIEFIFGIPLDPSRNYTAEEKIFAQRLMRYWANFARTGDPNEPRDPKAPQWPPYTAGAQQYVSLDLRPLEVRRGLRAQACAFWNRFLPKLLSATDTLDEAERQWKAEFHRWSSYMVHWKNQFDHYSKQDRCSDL

in vitro [2] = settings: African green monkey, Mean CC50, n=3
[3] = In vitro genetic toxicity (bacterial reverse mutation assay); settings: in vitro genetic toxicity studies; listed as PF-07957472
Human Cathepsin L = molecular target: T3, Human Cathepsin L (Homo sapiens, UniProt P07711); experiment: biochemical
T3 construct: assay run at Reaction Biology Corporation
T3 sequence (P07711 114-333): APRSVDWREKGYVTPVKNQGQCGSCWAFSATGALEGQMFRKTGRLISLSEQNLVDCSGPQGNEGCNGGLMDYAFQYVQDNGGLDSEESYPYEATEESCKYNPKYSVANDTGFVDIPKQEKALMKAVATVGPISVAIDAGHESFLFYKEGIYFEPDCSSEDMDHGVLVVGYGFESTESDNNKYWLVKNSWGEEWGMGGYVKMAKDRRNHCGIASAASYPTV

Human Cathepsin K = molecular target: T4, Human Cathepsin K (Homo sapiens, UniProt P43235); experiment: biochemical
T4 construct: assay run at Reaction Biology Corporation
T4 sequence (P43235 115-329): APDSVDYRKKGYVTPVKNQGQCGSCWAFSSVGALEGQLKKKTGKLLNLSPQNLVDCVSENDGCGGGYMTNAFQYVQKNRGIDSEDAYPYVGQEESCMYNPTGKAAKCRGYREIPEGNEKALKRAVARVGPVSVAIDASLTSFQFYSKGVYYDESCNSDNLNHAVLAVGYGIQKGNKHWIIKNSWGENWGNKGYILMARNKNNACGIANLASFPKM

L-Type Ca (Nifedipine) = experiment: CEREP ion channel-binding; settings: 30 µM
[4] = tested on: Nicotinic Ach Receptor (muscle); experiment: CEREP ion channel-binding; settings: 30 µM
PPAR gamma (Binding) = molecular target: T5, PPAR gamma (Binding) (Homo sapiens, UniProt P37231); experiment: CEREP NHR-binding
T5 construct: purchased Eurofins Cerep
T5 sequence (P37231 whole entry): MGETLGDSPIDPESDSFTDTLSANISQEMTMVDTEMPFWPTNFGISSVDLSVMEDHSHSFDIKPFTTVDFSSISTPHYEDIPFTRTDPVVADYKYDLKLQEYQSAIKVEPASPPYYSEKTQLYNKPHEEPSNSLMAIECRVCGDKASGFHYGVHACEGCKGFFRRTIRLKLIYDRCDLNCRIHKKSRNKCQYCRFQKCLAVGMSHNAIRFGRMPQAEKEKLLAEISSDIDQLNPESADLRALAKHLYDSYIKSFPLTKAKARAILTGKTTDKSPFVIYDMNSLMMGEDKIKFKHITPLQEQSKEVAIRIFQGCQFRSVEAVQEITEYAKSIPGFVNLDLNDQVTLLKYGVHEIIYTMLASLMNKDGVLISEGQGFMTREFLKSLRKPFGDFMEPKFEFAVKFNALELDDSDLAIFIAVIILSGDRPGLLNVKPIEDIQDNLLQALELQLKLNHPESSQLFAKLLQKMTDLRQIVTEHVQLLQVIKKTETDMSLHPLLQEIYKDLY

[5] = RRCK passive permeability; settings: dog, MDCK
Aurora A Kinase = molecular target: T6, Aurora A Kinase (Homo sapiens, UniProt O14965); experiment: CEREP kinase inhibition; format: biochemical
T6 construct: purchased Eurofins Cerep
T6 sequence (O14965 whole entry): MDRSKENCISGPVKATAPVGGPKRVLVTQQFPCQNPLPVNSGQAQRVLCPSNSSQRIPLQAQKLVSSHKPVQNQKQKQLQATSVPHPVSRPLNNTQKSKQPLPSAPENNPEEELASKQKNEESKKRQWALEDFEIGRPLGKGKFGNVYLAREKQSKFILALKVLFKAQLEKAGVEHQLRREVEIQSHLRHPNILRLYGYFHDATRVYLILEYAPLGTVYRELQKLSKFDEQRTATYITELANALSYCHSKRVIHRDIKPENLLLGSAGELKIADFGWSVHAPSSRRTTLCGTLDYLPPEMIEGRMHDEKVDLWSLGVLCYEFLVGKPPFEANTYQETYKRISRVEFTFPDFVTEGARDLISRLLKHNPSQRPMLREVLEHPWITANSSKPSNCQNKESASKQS

Choline Transporter = molecular target: T7, Choline Transporter (Homo sapiens, UniProt Q9GZV3); experiment: CEREP transporters-binding
T7 construct: purchased Eurofins Cerep
T7 sequence (Q9GZV3 whole entry): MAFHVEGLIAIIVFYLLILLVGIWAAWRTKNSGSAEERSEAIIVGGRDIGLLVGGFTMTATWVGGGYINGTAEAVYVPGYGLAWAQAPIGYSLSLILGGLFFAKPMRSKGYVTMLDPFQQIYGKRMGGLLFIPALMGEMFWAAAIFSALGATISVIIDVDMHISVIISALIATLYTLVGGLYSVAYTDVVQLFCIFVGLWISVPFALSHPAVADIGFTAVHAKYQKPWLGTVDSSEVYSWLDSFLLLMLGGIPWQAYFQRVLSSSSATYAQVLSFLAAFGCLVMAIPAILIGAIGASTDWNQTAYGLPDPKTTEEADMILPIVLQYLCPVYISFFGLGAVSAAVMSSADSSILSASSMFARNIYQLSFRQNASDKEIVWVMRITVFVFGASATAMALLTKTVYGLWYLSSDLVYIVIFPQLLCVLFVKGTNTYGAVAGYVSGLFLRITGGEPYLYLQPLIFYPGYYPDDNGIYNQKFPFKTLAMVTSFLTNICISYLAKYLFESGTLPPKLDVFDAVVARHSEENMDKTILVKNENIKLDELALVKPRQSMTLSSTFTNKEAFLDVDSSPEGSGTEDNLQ

Abl Kinase = molecular target: T8, Abl Kinase (Homo sapiens, UniProt P00519); experiment: CEREP kinase inhibition; format: biochemical
T8 construct: purchased Eurofins Cerep

AMPA Receptor = experiment: CEREP ion channel-binding; settings: 30 µM
Serotonin Transporter = molecular target: T9, Serotonin Transporter (Homo sapiens, UniProt P31645); experiment: CEREP transporters-binding
T9 construct: purchased Eurofins Cerep
T9 sequence (P31645 whole entry): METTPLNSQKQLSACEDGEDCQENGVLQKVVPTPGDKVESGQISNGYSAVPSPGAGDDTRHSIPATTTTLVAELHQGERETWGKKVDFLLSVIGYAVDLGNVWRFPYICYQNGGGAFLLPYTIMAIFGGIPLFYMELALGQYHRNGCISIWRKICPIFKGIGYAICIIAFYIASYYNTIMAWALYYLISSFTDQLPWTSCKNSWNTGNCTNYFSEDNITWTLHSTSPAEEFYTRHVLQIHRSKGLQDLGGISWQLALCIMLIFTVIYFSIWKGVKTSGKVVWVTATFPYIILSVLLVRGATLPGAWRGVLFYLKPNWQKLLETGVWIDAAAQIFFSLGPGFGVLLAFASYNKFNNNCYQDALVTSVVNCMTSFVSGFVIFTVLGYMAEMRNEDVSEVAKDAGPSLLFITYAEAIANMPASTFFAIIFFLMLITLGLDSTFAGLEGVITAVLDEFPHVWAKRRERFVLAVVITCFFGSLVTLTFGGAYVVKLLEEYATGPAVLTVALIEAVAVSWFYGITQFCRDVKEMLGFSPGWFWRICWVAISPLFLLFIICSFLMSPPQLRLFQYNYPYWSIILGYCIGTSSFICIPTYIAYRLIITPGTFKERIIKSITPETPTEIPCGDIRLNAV

Human Cathepsin D = molecular target: T10, Human Cathepsin D (Homo sapiens, UniProt P07339); experiment: biochemical
T10 construct: assay run at Reaction Biology Corporation
T10 sequence (P07339 65-412): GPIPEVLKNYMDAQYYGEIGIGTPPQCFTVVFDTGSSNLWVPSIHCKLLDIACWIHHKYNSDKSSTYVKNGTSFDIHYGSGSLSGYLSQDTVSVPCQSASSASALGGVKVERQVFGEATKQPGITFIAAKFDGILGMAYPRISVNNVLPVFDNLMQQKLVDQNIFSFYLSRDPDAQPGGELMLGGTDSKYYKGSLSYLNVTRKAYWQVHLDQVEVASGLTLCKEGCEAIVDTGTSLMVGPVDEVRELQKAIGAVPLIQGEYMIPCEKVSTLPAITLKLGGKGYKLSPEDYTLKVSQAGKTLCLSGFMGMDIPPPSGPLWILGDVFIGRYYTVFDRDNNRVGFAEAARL

in vitro [6] = settings: male, cynomolgus monkey, plasma
P38 MAP Kinase = molecular target: T11, P38 MAP Kinase (Homo sapiens, UniProt Q16539); experiment: CEREP kinase inhibition; format: biochemical
T11 construct: purchased Eurofins Cerep
T11 sequence (Q16539 whole entry): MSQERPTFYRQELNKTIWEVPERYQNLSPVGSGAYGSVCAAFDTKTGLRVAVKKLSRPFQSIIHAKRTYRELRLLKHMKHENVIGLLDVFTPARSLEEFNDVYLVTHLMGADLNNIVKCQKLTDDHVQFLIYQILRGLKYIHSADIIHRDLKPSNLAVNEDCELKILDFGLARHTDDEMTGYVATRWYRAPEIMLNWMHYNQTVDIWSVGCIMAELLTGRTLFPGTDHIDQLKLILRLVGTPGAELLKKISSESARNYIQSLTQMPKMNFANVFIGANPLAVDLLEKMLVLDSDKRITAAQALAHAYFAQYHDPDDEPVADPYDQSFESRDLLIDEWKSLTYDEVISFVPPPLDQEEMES

Human Cathepsin B = molecular target: T12, Human Cathepsin B (Homo sapiens, UniProt P07858); experiment: biochemical
T12 construct: assay run at Reaction Biology Corporation

[7] = molecular target: T13, Androgen Receptor (Binding) (Homo sapiens, UniProt P10275); experiment: CEREP NHR-binding
T13 construct: purchased Eurofins Cerep
T13 sequence (P10275 whole entry): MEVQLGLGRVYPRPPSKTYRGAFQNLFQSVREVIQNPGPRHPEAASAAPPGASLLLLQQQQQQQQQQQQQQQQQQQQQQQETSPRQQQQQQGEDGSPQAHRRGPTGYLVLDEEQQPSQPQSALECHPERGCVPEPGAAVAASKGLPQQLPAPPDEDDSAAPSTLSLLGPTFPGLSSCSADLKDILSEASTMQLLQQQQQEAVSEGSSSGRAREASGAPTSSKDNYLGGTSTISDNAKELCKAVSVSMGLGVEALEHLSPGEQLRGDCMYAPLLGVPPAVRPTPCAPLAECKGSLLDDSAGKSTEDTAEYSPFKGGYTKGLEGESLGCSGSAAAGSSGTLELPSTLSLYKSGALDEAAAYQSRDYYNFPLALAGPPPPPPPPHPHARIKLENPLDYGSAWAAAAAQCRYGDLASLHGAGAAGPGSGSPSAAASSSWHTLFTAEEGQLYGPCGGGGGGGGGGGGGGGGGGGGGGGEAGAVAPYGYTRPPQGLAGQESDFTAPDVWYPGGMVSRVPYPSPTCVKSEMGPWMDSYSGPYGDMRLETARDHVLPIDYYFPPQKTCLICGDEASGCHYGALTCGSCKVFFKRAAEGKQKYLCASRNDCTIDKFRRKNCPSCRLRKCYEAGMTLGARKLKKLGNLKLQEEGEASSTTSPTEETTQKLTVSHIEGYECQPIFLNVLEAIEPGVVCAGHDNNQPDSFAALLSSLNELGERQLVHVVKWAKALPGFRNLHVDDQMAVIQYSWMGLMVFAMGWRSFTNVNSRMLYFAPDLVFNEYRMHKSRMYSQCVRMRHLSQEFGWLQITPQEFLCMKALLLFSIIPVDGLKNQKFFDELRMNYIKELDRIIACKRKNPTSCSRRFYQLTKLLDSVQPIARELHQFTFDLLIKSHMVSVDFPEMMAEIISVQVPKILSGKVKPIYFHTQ

Vero E6 cells = settings: read-out: Mean CC50; n=3
Src Kinase = molecular target: T14, Src Kinase (Homo sapiens, UniProt P12931); experiment: CEREP kinase inhibition; format: biochemical
T14 construct: purchased Eurofins Cerep

For Cc1ccc(N2CCN(C)CC2)cc1C(=O)NC1(c2cc(-c3cnn(C)c3)nc3ccccc23)CC1 [Compound 4], the inhibition at 30 µM (PDE3B) was 4%, the IC50 [1] was > 100 µM and the inhibition at 30 µM (Acetylcholinesterase) was 17%. For the same compound, the CC50 (in vitro [2]) was 69.3 µM, the “In vitro genotoxicity screen” value [3] was “not mutagenic or clastogenic” and the IC50 (Human Cathepsin L) was > 100 µM. For the same compound, the IC50 (Human Cathepsin K) was > 100 µM, the “% inhibition” value (L-Type Ca (Nifedipine)) was -6% and the “% inhibition” value [4] was 2%. The inhibition at 30 µM (PPAR gamma (Binding)) was 9%, the Papp [5] was 31.4 ×10⁻⁶ cm/s and the inhibition at 30 µM (Aurora A Kinase) was -1%. For the same compound, the inhibition at 30 µM (Choline Transporter) was 25%, the inhibition at 30 µM (Abl Kinase) was 2% and the “% inhibition” value (AMPA Receptor) was 13%. The inhibition at 30 µM (Serotonin Transporter) was 8%, the IC50 (Human Cathepsin D) was > 100 µM and the fraction unbound (in vitro [6]) was 0.101. The inhibition at 30 µM (P38 MAP Kinase) was 10%, the IC50 (Human Cathepsin B) was > 100 µM and the inhibition at 30 µM [7] was -10%. For the same compound, the CC50 (Vero E6 cells) was 78.7 µM and the inhibition at 30 µM (Src Kinase) was -5%.
